Reference: paper PMC6015718, “Effect of Polyvalence on the Antibacterial Activity of a Synthetic Peptide Derived from Bovine Lactoferricin against Healthcare-Associated Infectious Pathogens” (BioMed Research International, 2018)
Converted amounts (≈) assume the structure as drawn.

Experiments:
Format in all cases: cell-based
[1] = test system: Staphylococcus aureus ATCC 25923 (sensitive); settings: ATCC 25923, 24 h
Text: (§1) All microorganisms were purchased from the American Type Culture Collection (ATCC). To determine the antibacterial activity of synthetic peptides against HCAI bacteria, the Staphylococcus aureus strains ATCC 25923 and ATCC 33591 were employed as sensitive and resistant strains, respectively, of a Gram-positive microorganisms species, and Klebsiella pneumoniae ATCC 13883 and ATCC 700603 as sensitive and resistant strains of a Gram-negative species.
The antibacterial activity assay for peptides and controls was performed according to the National Committee for Clinical Laboratory Standards method M7-A7 [11]. MIC and MBC values were determined using a broth microdilution and growth inhibition method with some modification. Briefly, MIC assays were performed by liquid inhibition growth assay in an untreated sterile 96-well flat-bottom tissue culture plate. Bacteria were cultured overnight on Mueller-Hinton agar (MHA). Three colonies were transferred to 8 mL of Mueller-Hinton broth (MHB) and incubated at 37°C until the mid-exponential phase of growth. The turbidity of the cultures was measured and adjusted spectrophotometrically to McFarland standard 0.5, then diluted to a final concentration of […]. Synthetic antibacterial peptide candidate stock solutions were diluted to final concentrations per well of 200, 100, 50, 25, 12.5, and 6.25 μM. […]
Wells containing MHB with bacterial inoculum only served as bacterial growth controls. Additional controls included MHB alone and MHB with ciprofloxacin (CIP) (2 μg/mL) and bacteria as a positive control. The microplate was incubated for 24 h at 37°C, and growth inhibition was examined by monitoring the optical density at 620 nm (OD620). MIC was defined as the lowest peptide concentration that inhibited bacteria growth >90%.

[2] = test system: Klebsiella pneumoniae ATCC 13883 (sensitive); settings: ATCC 13883, 18 h
Text: as §1
(§2) To determine the MBC, an aliquot from each well of the MIC assay was spread onto MHA. After 18 h at 37°C, the concentration that inhibited bacterial growth was determined. Each of these tests was performed four times. MBC was defined as the lowest concentration of peptide that reduced the number of bacteria by 99.9% in vitro [12].

[3] = test system: Klebsiella pneumoniae ATCC 700603 (resistant); settings: ATCC 700603, 18 h
Text: as §1, §2

[4] = test system: Staphylococcus aureus ATCC 25923 (sensitive); settings: ATCC 25923, 18 h
Text: as §1, §2

[5] = test system: Staphylococcus aureus ATCC 33591 (resistant); settings: ATCC 33591, 18 h
Text: as §1, §2

MIC [1]: > 200 µM
SMILES: CSCC[C@H](NC(=O)[C@H](CCCNC(=N)N)NC(=O)[C@H](Cc1c[nH]c2ccccc12)NC(=O)[C@H](CCC(N)=O)NC(=O)[C@H](Cc1c[nH]c2ccccc12)NC(=O)[C@H](CCCNC(=N)N)NC(=O)[C@H](CCCNC(=N)N)NC(=O)[C@H](CS)NC(=O)[C@H](CCCCN)NC(=O)[C@@H](N)Cc1ccccc1)C(=O)N[C@@H](CCCCN)C(=O)N[C@@H](CCCCN)C(=O)N[C@@H](CC(C)C)C(=O)NCC(=O)N[C@@H](C)C(N)=O [LfcinB reference, reference compound]
MBC [2]: > 200 µM | MBC [3]: > 200 µM | MBC [4]: > 200 µM | MBC [5]: 100 µM (≈ 199 µg/mL)
